Laboratory results: EP1248603B1, “USE OF PARTICULAR COMPOUNDS FOR PROPHYLAXIS AND TREATMENT OF HEPATITIS C” (Morphochem AG, priority 2000, dated 2001)
Read-outs that look alike come from different tables or passages of the source.

Molecular target: T1, NS3 Proteinase (Hepatitis C virus genotype 1b, UniProt P26663)
T1 construct: beschriebenen NS3 Proteinase-Assay bestimmt
Experiment: NS3 proteinase assay (analogous to Taliani et al., Analytical Biochemistry 240 (1996) 60-67; evaluation with GraFit 4)
Format: biochemical
Description: Die IC50-Werte wurden analog zu dem in: M. Taliani et al., Analytical Biochemistry, 240 (1996) 60-67 beschriebenen NS3 Proteinase-Assay bestimmt. Die Auswertung erfolgte mit Hilfe des Programms "GraFit 4" der Firma Erithacus Software Ltd. (Staines, Middlesex, UK).

T1 sequence (P26663 1027-1657, other chains not shown): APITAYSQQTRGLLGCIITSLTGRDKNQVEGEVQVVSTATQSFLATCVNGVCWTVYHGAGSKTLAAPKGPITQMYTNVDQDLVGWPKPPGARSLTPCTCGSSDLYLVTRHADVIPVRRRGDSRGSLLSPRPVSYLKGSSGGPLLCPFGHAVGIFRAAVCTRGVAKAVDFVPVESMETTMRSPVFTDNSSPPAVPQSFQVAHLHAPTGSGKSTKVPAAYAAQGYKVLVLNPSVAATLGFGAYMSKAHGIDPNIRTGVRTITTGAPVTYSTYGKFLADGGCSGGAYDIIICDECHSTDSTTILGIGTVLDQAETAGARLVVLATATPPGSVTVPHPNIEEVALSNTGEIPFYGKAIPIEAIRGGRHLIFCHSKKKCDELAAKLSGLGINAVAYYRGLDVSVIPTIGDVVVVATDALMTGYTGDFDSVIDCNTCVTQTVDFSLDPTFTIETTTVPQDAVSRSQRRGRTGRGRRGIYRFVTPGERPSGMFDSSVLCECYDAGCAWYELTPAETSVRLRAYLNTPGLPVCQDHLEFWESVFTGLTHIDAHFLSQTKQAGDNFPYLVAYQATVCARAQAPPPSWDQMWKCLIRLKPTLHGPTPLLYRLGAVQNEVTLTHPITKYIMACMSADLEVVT

Row | SMILES | IC50 (read-out: IC50) [µM] | IC50 [µM]
1 | CC1=CC(=O)c2ccccc2C1=O [Beispiel 1, Menadion] | 45 | 
2 | O=C1C=CC(=O)c2ccccc21 [Beispiel 2, 1,4-Naphthochinon] |  | 20
3 | Nc1ccc(O)c2ccccc12 [Beispiel 3, 1-Amino-4-naphthol] | 13 | 
4 | Oc1ccc(NCc2ccccc2)c2ccccc12 [Beispiel 4, 1-Benzylamino-4-naphthol] | 25 | 
5 | Nc1ccc(O)c2ncccc12 [Beispiel 5, 5-Amino-8-hydroxychinolin] | 51 | 
